Experimental data reported in ChEMBL document CHEMBL1137511, “Identification of a series of novel derivatives as potent HCV inhibitors by a ligand-based virtual screening optimized procedure” (Bioorg Med Chem, 2007).

Experiment: Inhibition of HCV genotype 1 polymerase
Set-up: species or system Hepacivirus hominis

| Structure (SMILES) | IC50 |
| --- | --- |
| CC(C)CCn1c(=O)c(C2=NS(=O)(=O)c3cc(OCC(=O)O)ccc3N2)c(O)c2cccnc21 | 367 nM |
| O=c1c(C2=NS(=O)(=O)c3ccccc3N2)c(O)c2ccccc2n1NCc1nccs1 | 35800 nM |
| CCOC(=O)COC(=O)NS(=O)(=O)Nc1ccc2c(c1)S(=O)(=O)NC(c1c(O)c3cccnc3n(CCC(C)C)c1=O)=N2 | 61 nM |
| CCCCNn1c(=O)c(C2=NS(=O)(=O)c3ccccc3N2)c(O)c2ccccc21 | 951 nM |
| Cc1ccsc1CNn1c(=O)c(C2=NS(=O)(=O)c3ccccc3N2)c(O)c2ccccc21 | 15000 nM |
| CC(C)CCn1c(=O)c(C2=NS(=O)(=O)c3cc(NS(=O)(=O)NCCC(N)=O)ccc3N2)c(O)c2cccnc21 | 20 nM |
| CC(C)CCn1c(=O)c(C2=NS(=O)(=O)c3cc(NS(=O)(=O)Nc4cccc(C(N)=O)c4)ccc3N2)c(O)c2cccnc21 | 43 nM |
| O=c1c(C2=NS(=O)(=O)c3ccccc3N2)c(O)c2ccccc2n1NCc1ccccc1Br | 6720 nM |
| Cc1ccccc1CNn1c(=O)c(C2=NS(=O)(=O)c3ccccc3N2)c(O)c2ccccc21 | 6120 nM |

The remaining molecules from weak to strong by IC50, led by results:

| IC50 | Structure (SMILES) |
| --- | --- |
| 8370 nM | O=c1c(C2=NS(=O)(=O)c3cccc(O)c3N2)c(O)c2cccnc2n1Cc1ccccc1 |
| 1890 nM | CCCC(CC)Nn1c(=O)c(C2=NS(=O)(=O)c3ccccc3N2)c(O)c2ccccc21 (centres undefined) |
| 411 nM | CC(C)(C)CCNn1c(=O)c(C2=NS(=O)(=O)c3ccccc3N2)c(O)c2ccccc21 |
| 67 nM | CC(C)CCn1c(=O)c(C2=NS(=O)(=O)c3cc(NS(=O)(=O)NC4CCCCC4)ccc3N2)c(O)c2cccnc21 |
| 20 nM | CC(C)CCn1c(=O)c(C2=NS(=O)(=O)c3cc(NS(=O)(=O)Nc4ccc(C(=O)O)cc4)ccc3N2)c(O)c2cccnc21 |
